# Data published in patent US9255295B2, “Method for evaluating the sensitizing potential of a test compound” (IMMUNOSEARCH, priority 2010, dated 2016).
# Where two headings read alike, the source gives them in different places.
# System: ARE gene family (AKR1B10, AKR1C1, AKR1C2, CYP1B1, FTH1P, FTL, G6PD, GCLM, NQO2, SLC7A11, TXNRD1, UGT1A1, UGT1A9, YWHAZ, CD36, CYP1A1, GCLC, HMOX1, NQO1, PSME2 …)
# Details: for AHR expression / AKR1B10 expression / AKR1C1 expression / AKR1C2 expression / CYP1A1 expression / CYP1B1 expression / FTH1P expression / FTL expression / GCLC expression / GCLM expression / HMOX1 expression / NQO1 expression / NQO2 expression / SLC7A11 expression / TXNRD1 expression / UGT1A1 expression / UGT1A9 expression: compared to the control
smiles,measurement,setting,value
CC=Cc1ccc(O)c(OC)c1 [Isoeugenol],AHR NUMBER OF GENES grade,0.1%,"0 (if this expression is lower, the grade is 0)"
same,AKR1B10 NUMBER OF GENES grade,0.1%,"0 (if this expression is lower, the grade is 0)"
same,AKR1C1 NUMBER OF GENES grade,0.1%,"0 (if this expression is lower, the grade is 0)"
same,AKR1C2 NUMBER OF GENES grade,0.1%,"0 (if this expression is lower, the grade is 0)"
same,ARE >1.3 (number of genes),0.1%,2
same,CD36 expression compared to control,0.1%,0.9
same,CD36 grade (NUMBER OF GENES),0.1%,"0 (if this expression is lower, the grade is 0)"
same,CYP1A1 NUMBER OF GENES grade,0.1%,"1 (If the expression is greater than 1.3 compared to the control, a grade of 11s given)"
same,CYP1B1 NUMBER OF GENES grade,0.1%,"1 (If the expression is greater than 1.3 compared to the control, a grade of 11s given)"
same,FTH1P NUMBER OF GENES grade,0.1%,"0 (if this expression is lower, the grade is 0)"
same,FTL NUMBER OF GENES grade,0.1%,"0 (if this expression is lower, the grade is 0)"
same,GCLC NUMBER OF GENES grade,0.1%,"0 (if this expression is lower, the grade is 0)"
same,GCLM NUMBER OF GENES grade,0.1%,"0 (if this expression is lower, the grade is 0)"
same,HMOX1 NUMBER OF GENES grade,0.1%,"0 (if this expression is lower, the grade is 0)"
same,NQO1 NUMBER OF GENES grade,0.1%,"0 (if this expression is lower, the grade is 0)"
same,NQO2 NUMBER OF GENES grade,0.1%,"0 (if this expression is lower, the grade is 0)"
same,S100A8 expression compared to control,0.1%,1.1
same,S100A8 grade (NUMBER OF GENES),0.1%,"0 (if this expression is lower, the grade is 0)"
same,SLC7A11 NUMBER OF GENES grade,0.1%,"0 (if this expression is lower, the grade is 0)"
same,TOTAL ARE (number of genes),0.1%,2
same,TXNRD1 NUMBER OF GENES grade,0.1%,"0 (if this expression is lower, the grade is 0)"
same,UGT1A1 NUMBER OF GENES grade,0.1%,"0 (if this expression is lower, the grade is 0)"
same,UGT1A9 NUMBER OF GENES grade,0.1%,"0 (if this expression is lower, the grade is 0)"
same,AHR expression,0.1%,0.7
same,AKR1B10 expression,0.1%,0.9
same,AKR1C1 expression,0.1%,1.1
same,AKR1C2 expression,0.1%,1.0
same,CYP1A1 expression,0.1%,11.9
same,CYP1B1 expression,0.1%,12.2
same,FTH1P expression,0.1%,0.8
same,FTL expression,0.1%,1.0
same,GCLC expression,0.1%,0.8
same,GCLM expression,0.1%,1.1
same,HMOX1 expression,0.1%,0.9
same,NQO1 expression,0.1%,1.1
same,NQO2 expression,0.1%,1.0
same,SLC7A11 expression,0.1%,1.1
same,TXNRD1 expression,0.1%,1.1
same,UGT1A1 expression,0.1%,1.0
same,UGT1A9 expression,0.1%,0.8
same,AHR NUMBER OF GENES grade,1%,"0 (if this expression is lower, the grade is 0)"
same,AKR1B10 NUMBER OF GENES grade,1%,"0 (if this expression is lower, the grade is 0)"
same,AKR1C1 NUMBER OF GENES grade,1%,"0 (if this expression is lower, the grade is 0)"
same,AKR1C2 NUMBER OF GENES grade,1%,"0 (if this expression is lower, the grade is 0)"
same,ARE >1.3 (number of genes),1%,3
same,CD36 expression compared to control,1%,1.3
same,CD36 grade (NUMBER OF GENES),1%,"1 (If the expression is greater than 1.3 compared to the control, a grade of 11s given)"
same,CYP1A1 NUMBER OF GENES grade,1%,"1 (If the expression is greater than 1.3 compared to the control, a grade of 11s given)"
same,CYP1B1 NUMBER OF GENES grade,1%,"1 (If the expression is greater than 1.3 compared to the control, a grade of 11s given)"
same,FTH1P NUMBER OF GENES grade,1%,"0 (if this expression is lower, the grade is 0)"
same,FTL NUMBER OF GENES grade,1%,"0 (if this expression is lower, the grade is 0)"
same,GCLC NUMBER OF GENES grade,1%,"0 (if this expression is lower, the grade is 0)"
same,GCLM NUMBER OF GENES grade,1%,"0 (if this expression is lower, the grade is 0)"
same,HMOX1 NUMBER OF GENES grade,1%,"0 (if this expression is lower, the grade is 0)"
same,NQO1 NUMBER OF GENES grade,1%,"0 (if this expression is lower, the grade is 0)"
same,NQO2 NUMBER OF GENES grade,1%,"0 (if this expression is lower, the grade is 0)"
same,S100A8 expression compared to control,1%,1.0
same,S100A8 grade (NUMBER OF GENES),1%,"0 (if this expression is lower, the grade is 0)"
same,SLC7A11 NUMBER OF GENES grade,1%,"0 (if this expression is lower, the grade is 0)"
same,TOTAL ARE (number of genes),1%,3
same,TXNRD1 NUMBER OF GENES grade,1%,"1 (If the expression is greater than 1.3 compared to the control, a grade of 11s given)"
same,UGT1A1 NUMBER OF GENES grade,1%,"0 (if this expression is lower, the grade is 0)"
same,UGT1A9 NUMBER OF GENES grade,1%,"0 (if this expression is lower, the grade is 0)"
same,AHR expression,1%,0.9
same,AKR1B10 expression,1%,0.7
same,AKR1C1 expression,1%,1.2
same,AKR1C2 expression,1%,0.9
same,CYP1A1 expression,1%,219.2
same,CYP1B1 expression,1%,25.3
same,FTH1P expression,1%,0.9
same,FTL expression,1%,1.0
same,GCLC expression,1%,0.9
same,GCLM expression,1%,1.2
same,HMOX1 expression,1%,1.2
same,NQO1 expression,1%,1.0
same,NQO2 expression,1%,1.0
same,SLC7A11 expression,1%,1.1
same,TXNRD1 expression,1%,1.3
same,UGT1A1 expression,1%,1.1
same,UGT1A9 expression,1%,1.0
same,AHR NUMBER OF GENES grade,10%,"0 (if this expression is lower, the grade is 0)"
same,AKR1B10 NUMBER OF GENES grade,10%,"0 (if this expression is lower, the grade is 0)"
